Source: US20210161868A1, “ANTI-INFLAMMATORY THERAPY IN ARRHYTHMOGENIC CARDIOMYOPATHY (ACM)” (Beth Israel Deaconess Medical Center, Inc., priority 2018, published 2021)
Entries after “also recorded” stand apart in the source; their conditions may differ.

What was measured:
Dsg2^mut/mut mice = assay: Morphometry, echocardiography and electrocardiography in Dsg2^mut/mut mice; assay type: in vivo
Text: All animal studies were in full compliance with policies of Beth Israel Deaconess Medical Center, Johns Hopkins School of Medicine and St. George's University of London. They also conformed to the Guide for the Care and Use of Laboratory Animals from the National Institutes of Health (NIH publication no. 85-23, revised 1996). In vitro studies involved transfection of cultured neonatal rat ventricular myocytes with a mutant allele of the desmosomal protein plakoglobin (2157de12) as previously described.^15 In vivo studies were performed in mice with homozygous knock-in of a mutant form of Dsg2, the gene encoding the desmosomal cadherin desmoglein-2 (Dsg2^mut/mut mice) as previously described.^6 This mutation entails loss of exons 4 and 5 which causes a frameshift and premature termination of translation.
Three cohorts of mice at 8 weeks of age were anesthetized and implanted with subcutaneous osmotic mini-pumps (Alzet, Model 1004). These included: 1) Dsg2^mut/mut mice with pumps containing 50 μg/μL Bay11-7082 in a vehicle of 65% DMSO, 15% ethanol, and 20% saline; 2) Dsg2^mut/mut mice with pumps containing an equivalent volume of vehicle; and 3) wildtype mice with pumps containing vehicle. Mice in cohort 1 received 5 mg/kg/day of Bay11-7082 by continuous infusion; those in cohorts 2 and 3 received an equivalent volume of vehicle each day for 4 weeks. At 12 weeks of age, mice were re-anesthetized and new Alzet pumps were implanted for an additional 4 weeks of treatment.
At the end of the 8 week drug treatment protocol, cardiac function was assessed in all mice by transthoracic echocardiography and electrocardiography (ECG) as previously described. Echocardio-graphic measurements were made according to American Society of Echocardiography guidelines^48 in non-sedated mice using a Vevo 2100 Visualsonic imaging system. Parasternal long-axis views of the left ventricle (LV), at the level of the papillary muscles, were acquired at a sweep speed of 200 mm/second. Three to five measurements were acquired from each mouse and averaged to assess LV function as previously described. ECG measurements made in anesthetized mice in which wire electrodes had been sutured in place in the right and left arms to obtain standard lead I ECG recordings. Recordings were captured via PowerLab and analyzed via the LabChart Pro ECG Analysis Add-on Software (LabChart Pro 8, MLS360/8, AD Intruments). ECGs were recorded for 15 minutes and all ECG wave and amplitude parameters were analyzed as signal averaged ECGs (SAECGs). Following completion of functional studies, mice were euthanized and hearts were excised and processed for additional studies either by freezing fresh tissue (−80C) or fixing tissue in 10% buffered formalin and embedding in paraffin.

[1] = test system: neonatal rat ventricular myocytes (NRVMs) expressing JUP^2157del2; assay: In vitro apoptosis assay (TUNEL) in NRVMs expressing mutant plakoglobin; assay type: cell-based; settings: transfected NRVMs, 24 hours
Experimental: Primary cultures were prepared from disaggregated ventricles of 1-day-old Wistar rat pups (Charles River) as previously described.^15 Cell suspensions were pre-plated to reduce fibroblast content, placed in collagen-coated chamber slides at a density of 2.4×10^5 cells/cm^2, and grown for 4 days at 37° C. in M199 medium (GIBCO) (supplemented with penicillin, 20 U/mL; streptomycin, 20 μg/mL; 10% neonatal calf serum and 0.1 mM bromodeoxyuridine) in a humidified atmosphere containing 1% CO2. Epinephrine (0.01 μmol/mL) was added during the first 24 hours of culture. At 24 hours post-seeding, cultures were transfected with an adenoviral construct expressing plakoglobin (JUP) with the 2157del2 mutation, as previously reported.^15 At 24 hours post-transfection, cultures were treated with Bay11-7082 (Sigma, […]) for an additional 24 hours. Transfected cultures treated with vehicle only (DMSO) and non-transfected cultures were used for control purposes.
Terminal deoxynucleotidyl transferase dUTP nick end labeling (TUNEL) was performed on neonatal rat myocyte cultures according to the manufacturer's protocol (Millipore, S7110). The number of TUNEL-positive nuclei was counted in 5 randomly selected high-power fields in each culture well and expressed as a per cent of total nuclei visualized with DAPI.

[2] = Dsg2^mut/mut + Bay11-7082, n=17, mean±SEM, 8 week treatment
[3] = Dsg2^mut/mut mice, continuous infusion over 8 weeks

Cc1ccc(S(=O)(=O)/C=C/C#N)cc1 [Bay 11-7082]
FS, fractional shortening (Dsg2^mut/mut mice; [2]): 49.5 ± 1.9%
HW/BW, heart weight/body weight (Dsg2^mut/mut mice; [2]): 4.7 ± 0.1 mg/g
IVSd, interventricular septum thickness at end-diastole (Dsg2^mut/mut mice; [2]): 0.95 ± 0.02 mm
LVIDd, left ventricular internal diameter at end-diastole (Dsg2^mut/mut mice; [2]): 2.96 ± 0.06 mm
LVIDs, left ventricular internal diameter at end-systole (Dsg2^mut/mut mice; [2]): 1.50 ± 0.08 mm
LVM, left ventricular mass (Dsg2^mut/mut mice; [2]): 92.9 ± 3.08 mg
P-Amp, P-wave amplitude (Dsg2^mut/mut mice; [2]): 0.06 ± 0.003 mV
PR-I, P-R interval (Dsg2^mut/mut mice; [2]): 39.0 ± 0.9 ms
Pd, P-wave duration (Dsg2^mut/mut mice; [2]): 10.1 ± 0.5 ms
Q-Amp, Q-wave amplitude (Dsg2^mut/mut mice; [2]): −0.06 ± 0.01 mV
QRSd, QRS wave duration (Dsg2^mut/mut mice; [2]): 11.4 ± 0.4 ms
R-Amp, R-wave amplitude (Dsg2^mut/mut mice; [2]): 0.66 ± 0.04 mV
RR-I, R-R interval (Dsg2^mut/mut mice; [2]): 118 ± 2.5 ms
S-Amp, S-wave amplitude (Dsg2^mut/mut mice; [2]): −0.09 ± 0.04 mV
abnormalities in the signal averaged ECG (Dsg2^mut/mut mice; [3]): corrected
contractile function (Dsg2^mut/mut mice; [3]): normalized
treated ACM mice that failed to respond to NFκB inhibition (Dsg2^mut/mut mice; related to technical failure of drug delivery by Alzet minipumps): 3 of 17
myocyte apoptosis, TUNEL labeling [1]: normalization; also recorded: returned to control levels
